Where a SMILES comes first, the peptide text is derived from it.
Molecular target: T1, recombinant human PEDF-R[1–288] (Homo sapiens, UniProt Q96AD5)
T1 construct: SUMOstar (N); His tag (N); made in house; host or cells: Escherichia coli Rosetta(DE3), co-transformed with pGro7 (groES-groEL)
T1 sequence (Q96AD5 1-288): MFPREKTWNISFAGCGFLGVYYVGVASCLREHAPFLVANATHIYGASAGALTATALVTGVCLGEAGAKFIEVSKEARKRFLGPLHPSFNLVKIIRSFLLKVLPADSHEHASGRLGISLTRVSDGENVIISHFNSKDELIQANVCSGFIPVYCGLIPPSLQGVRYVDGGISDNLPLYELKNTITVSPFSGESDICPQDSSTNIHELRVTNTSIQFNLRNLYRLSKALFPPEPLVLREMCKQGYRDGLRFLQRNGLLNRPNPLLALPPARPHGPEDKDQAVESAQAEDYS
Experiment: Phospholipase A2 activity assay (EnzChek)
Assay type: biochemical
Details: purified recombinant PEDF-R in the presence of peptides
Excerpt: To obtain the PEDF-R protein, the following procedure was followed. For plasmid construction, the plasmid used for expression was pE-SUMOstar-PEDF-R[1–288] C-terminal TwinStrep tagged. This plasmid contained the coding sequence for the human PEDF-R open reading frame between positions 1 and 288. For transformation: The expression plasmid and pGro7(groES-groEL) were co-transformed into Escherichia coli Rosetta(DE3) to obtain colonies for recombinant protein expression[34],[35]. The transformed cells were plated on Luria-Bertani (LB) agar plate containing 10 μg/ml chloramphenicol and 100 µg/ml ampicillin followed by overnight incubation at 37 °C to obtain colonies. A total of 100 ml of LB media containing 10 μg/ml chloramphenicol and 100 µg/ml ampicillin was inoculated with a single colony and incubated at 37 °C with vigorous shaking overnight. Then, 1 liter of LB media containing 0.5 mg/ml L-(+) arabinose, 2% D-(+)-Glucose, 10 μg/ml chloramphenicol and 100 µg/ml ampicillin was inoculated with 2% of the overnight culture and incubated at 37 °C with vigorous shaking until the O.D.600 nm reached 0.5-0.6. […]
Phospholipase A2 (PLA2) activity was determined using EnzChek™ Phospholipase A2 Assay Kit (Thermo Fisher Scientific, cat. E10217) according to the manufacturer’s instructions and as described before. […] Fluorescence emission was measured at 515 nm with excitation at 460 nm. […]

## CC[C@H](C)[C@H](NC(=O)[C@H](CC(C)C)NC(=O)[C@H](CC(=O)O)NC(=O)[C@H](Cc1ccc(O)cc1)NC(=O)[C@H](Cc1ccc(O)cc1)NC(=O)[C@H](CC(C)C)NC(=O)[C@H](C)NC(=O)[C@H](CCCNC(=N)N)NC(=O)[C@H](C)NC(=O)[C@@H](NC(=O)[C@@H](NC(=O)[C@H](CO)NC(=O)[C@H](CCC(=O)O)NC(=O)[C@@H](NC(=O)[C@H](CCCNC(=N)N)NC(=O)[C@@H](N)CCC(N)=O)[C@@H](C)O)[C@@H](C)CC)[C@@H](C)CC)C(=O)N[C@@H](CO)C(=O)O [H105A] (H-QRTESIIARALYYDLIS-OH)
  stimulation of PLA2 activity of PEDF-R: functional effectors of PEDF-R

Reference: article PMC11928584, “H105A peptide eye drops promote photoreceptor survival in murine and human models of retinal degeneration” (Communications Medicine, 2025)
